pIC50: −log10 of the molar value.
What was measured:
[1] = target: T1, recombinant human FLAP protein (Homo sapiens, UniProt P20292); assay: FLAP binding assay (Scintillation Proximity Assay, displacement of [125I]L-691,831); settings: for pIC50: read-out: FLAP SPA IC50
T1 construct: made in house; host or cells: Sf9 insect cells (100,000xg membrane fraction used)
T1 sequence (P20292 1-161): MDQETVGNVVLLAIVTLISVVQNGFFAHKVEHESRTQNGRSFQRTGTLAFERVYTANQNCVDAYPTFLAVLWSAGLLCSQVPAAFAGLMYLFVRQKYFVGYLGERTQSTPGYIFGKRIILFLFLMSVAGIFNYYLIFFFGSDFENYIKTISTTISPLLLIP
Method in brief: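 Scintillation proximity displacement of [125I]L-691,831 (0.08 nM) from membranes of sf9 cells expressing recombinant human FLAP (5 μg/well) on WGA SPA beads, pH 7.5 Tris buffer. Plates shaken 2 h before counting. Non-specific binding defined with 10 μM unlabelled L-691,831.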

[2] = test system: synthesis of LTB4 in human whole blood; assay: human whole blood LTB4 production inhibition assay; format: cell-based; settings: calcimycin stimulated, read-out: hWB LTB4 IC50
Method in brief: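 Readout: plasma LTB4 by antibody-based HTRF. Compound added to heparinized human whole blood, 15 min 37° C; calcimycin 20 μM final (PBS pH 7.4), 30 min 37° C; spun 1500×g 5 min, plasma taken.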

SMILES | pIC50 [1] | pIC50 [2] | inhibition at 1 µM ([1]; read-out: FLAP SPA inhibition at 1 uM)
CC(C)[C@@](C)(c1ccc(-c2cnc(N)nc2)nc1)c1noc(-c2cnn(CC(=O)N(C)C)c2)n1 [Example 59, 2-[4-(3-{(2S)-2-[6-(2-aminopyrimidin-5-yl)pyridin-3-yl]-3-methylbutan-2-yl}-1,2,4-oxadiazol-5-yl)-1H-pyrazol-1-yl]-N,N-dimethylacetamide] | 6.35 | 5.74 | 
CC(C)[C@](C)(c1ccc(-c2ccc(N)nc2)nc1)c1noc(-c2cnn(C)c2)n1 [Example 60, 5-{(2R)-3-methyl-2-[5-(1-methyl-1H-pyrazol-4-yl)-1,2,4-oxadiazol-3-yl]butan-2-yl}-2,3′-bipyridin-6′-amine] | 8.47 | 7.77 | 
CC(C)[C@](C)(c1ccc(-c2cnc(N)nc2)nc1)c1noc(-c2cnn(CC(=O)N(C)C)c2)n1 [Example 61, 2-[4-(3-{(2R)-2-[6-(2-aminopyrimidin-5-yl)pyridin-3-yl]-3-methylbutan-2-yl}-1,2,4-oxadiazol-5-yl)-1H-pyrazol-1-yl]-N,N-dimethylacetamide] | 8.52 | 7.32 | 
CC(C)C(C)(c1ccc(-c2cnc(N)nc2)nc1)c1noc(-c2ccc(I)cc2)n1 (centres unmarked) [Example 62, 5-(5-{2-[5-(4-iodophenyl)-1,2,4-oxadiazol-3-yl]-3-methylbutan-2-yl}pyridin-2-yl)pyrimidin-2-amine] | 7.71 | 6.38 | 
CC(c1ccc(-c2cnc(N)nc2)nc1)(c1noc(-c2cnn(C3COC3)c2)n1)C1CC1 (centres unmarked) [Example 63, 5-[5-(1-cyclopropyl-1-{5-[1-(oxetan-3-yl)-1H-pyrazol-4-yl]-1,2,4-oxadiazol-3-yl}-ethyl)pyridin-2-yl]pyrimidin-2-amine] | 8.06 | 7.54 | 
CC(c1ccc(-c2cnc(N)nc2)nc1)(c1noc(-c2cn[nH]c2)n1)C1CC1 (centres unmarked) [Example 64, 5-(5-{1-cyclopropyl-1-[5-(1H-pyrazol-4-yl)-1,2,4-oxadiazol-3-yl]ethyl}pyridin-2-yl)pyrimidin-2-amine] | 8.20 | 7.10 | 
C=C(CO)n1cc(-c2nc(C(C)(c3ccc(-c4cnc(N)nc4)nc3)C3CC3)no2)cn1 (centres unmarked) [Example 65, 2-[4-(3-{1-[6-(2-aminopyrimidin-5-yl)pyridin-3-yl]-1-cyclopropylethyl}-1,2,4-oxadiazol-5-yl)-1H-pyrazol-1-yl]prop-2-en-1-ol] | 8.80 | 7.55 | 
CN(C)C(=O)Cn1cc(-c2nc(C(C)(c3ccc(-c4cnc(N)nc4)nc3)C3CC3)no2)cn1 (centres unmarked) [Example 67, 2-[4-(3-{1-[6-(2-aminopyrimidin-5-yl)pyridin-3-yl]-1-cyclopropylethyl}-1,2,4-oxadiazol-5-yl)-1H-pyrazol-1-yl]-N,N-dimethylacetamide] | 6.96 | 6.54 | 
COCCn1cc(-c2nc(C(C)(c3ccc(-c4cnc(N)nc4)nc3)C3CC3)no2)cn1 (centres unmarked) [Example 68, 5-[5-(1-cyclopropyl-1-{5[1-(2-methoxyethyl)-1H-pyrazol-4-yl]-1,2,4-oxadiazol-3-yl}ethyl)pyridin-2-yl]pyrimidin-2-amine] | 7.62 | 7.10 | 
CC(C)C(C)(c1ccc(-c2cnc(N)nc2)nc1)c1noc(-c2ccc(I)c(Br)c2)n1 (centres unmarked) [Example 69, 5-(5-{2-[5-(3-bromo-4-iodophenyl)-1,2,4-oxadiazol-3-yl]-3-methylbutan-2-yl}pyridin-2-yl)pyrimidin-2-amine] | 7.19 | 6.08 | 
CC(C)C(C)(c1ccc(-c2cnc(N)nc2)nc1)c1noc(-c2cccnc2)n1 (centres unmarked) [Example 70, 5-(5-{3-methyl-2-[5-(pyridin-3-yl)-1,2,4-oxadiazol-3-yl]butan-2-yl}pyridin-2-yl)pyrimidin-2-amine] | 7.91 | 6.62 | 
CC(C)C(C)(c1ccc(-c2cnc(N)nc2)nc1)c1noc(-c2ccccc2)n1 (centres unmarked) [Example 71, 5-{5-[3-methyl-2-(5-phenyl-1,2,4-oxadiazol-3-yl)butan-2-yl]pyridin-2-yl}pyrimidin-2-amine] | 8.09 | 6.08 | 
Cc1ccc(-c2nc(C(C)(c3ccc(-c4cnc(N)nc4)nc3)C(C)C)no2)cn1 (centres unmarked) [Example 72, 5-(5-{3-methyl-2-[5-(6-methylpyridin-3-yl)-1,2,4-oxadiazol-3-yl]butan-2-yl}pyridin-2-yl)pyrimidin-2-amine] | 7.58 | 6.36 | 
CC(C)C(C)(c1ccc(-c2cnc(N)nc2)nc1)c1noc(-c2cn[nH]c2)n1 (centres unmarked) [Example 73, 5-(5-{3-methyl-2-[5-(1H-pyrazol-4-yl)-1,2,4-oxadiazol-3-yl]butan-2-yl}pyridin-2-yl)pyrimidin-2-amine] | 8.41 | 6.96 | 
CC(C)C(C)(c1ccc(-c2cnc(N)nc2)nc1)c1noc(-c2ccc(NCCO)nc2)n1 (centres unmarked) [Example 74, 2-{[5-(3-{2-[6-(2-aminopyrimidin-5-yl)pyridin-3-yl]-3-methylbutan-2-yl}-1,2,4-oxadiazol-5-yl)pyridin-2-yl]amino}ethanol] | 8.51 | 6.66 | 
COCCn1cc(-c2nc([C@@](C)(c3ccc(-c4cnc(N)nc4)nc3)C3CC3)no2)cn1 [Example 75, 5-{5-[(1R)-1-cyclopropyl-1-{5-[1-(2-methoxyethyl)-1H-pyrazol-4-yl]-1,2,4-oxadiazol-3-yl}ethyl]pyridin-2-yl}pyrimidin-2-amine] | 7.49 | 7.28 | 
COCCn1cc(-c2nc([C@](C)(c3ccc(-c4cnc(N)nc4)nc3)C3CC3)no2)cn1 [Example 76, 5-{5-[(1S)-1-cyclopropyl-1-{5-[1-(2-methoxyethyl)-1H-pyrazol-4-yl]-1,2,4-oxadiazol-3-yl}ethyl]pyridin-2-yl}pyrimidin-2-amine] | 6.72 | 5.70 | 
CC(C)[C@](C)(c1ccc(-c2cnc(N)cn2)nc1)c1noc(-c2cnn(C)c2)n1 [Example 77, 5-(5-{(2R)-3-methyl-2-[5-(1-methyl-1H-pyrazol-4-yl)-1,2,4-oxadiazol-3-yl]butan-2-yl}pyridin-2-yl)pyrazin-2-amine] | 9.85 | 7.82 | 
C[C@@](c1ccc(-c2cnc(N)nc2)nc1)(c1noc(-c2cnn(C3COC3)c2)n1)C1CC1 [Example 78, 5-{5-[(1R)-1-cyclopropyl-1-{5-[1-(oxetan-3-yl)-1H-pyrazol-4-yl]-1,2,4-oxadiazol-3-yl}ethyl]pyridin-2-yl}pyrimidin-2-amine] | 8.10 | 7.54 | 
C[C@](c1ccc(-c2cnc(N)nc2)nc1)(c1noc(-c2cnn(C3COC3)c2)n1)C1CC1 [Example 79, 5-{5-[(1S)-1-cyclopropyl-1-{5-[1-(oxetan-3-yl)-1H-pyrazol-4-yl]-1,2,4-oxadiazol-3-yl}ethyl]pyridin-2-yl}pyrimidin-2-amine] | 6.85 | 6.19 | 
CNC(=O)Cn1cc(-c2nc(C(C)(c3ccc(-c4cnc(N)nc4)nc3)C(C)C)no2)cn1 (centres unmarked) [Example 80, 2-[4-(3-{2-[6-(2-aminopyrimidin-5-yl)pyridin-3-yl]-3-methylbutan-2-yl}-1,2,4-oxadiazol-5-yl)-1H-pyrazol-1-yl]-N-methylacetamide] | 8.25 | 6.64 | 
CN(C)C(=O)Cn1cc(-c2nc([C@@](C)(c3ccc(-c4cnc(N)nc4)nc3)C3CC3)no2)cn1 [Example 83, 2-[4-(3-{(1R)-1-[6-(2-aminopyrimidin-5-yl)pyridin-3-yl]-1-cyclopropylethyl}-1,2,4-oxadiazol-5-yl)-1H-pyrazol-1-yl]-N,N-dimethylacetamide] | 7.12 | 6.70 | 
CN(C)C(=O)Cn1cc(-c2nc([C@](C)(c3ccc(-c4cnc(N)nc4)nc3)C3CC3)no2)cn1 [Example 84, 2-[4-(3-{(1S)-1-[6-(2-aminopyrimidin-5-yl)pyridin-3-yl]-1-cyclopropylethyl}-1,2,4-oxadiazol-5-yl)-1H-pyrazol-1-yl]-N,N-dimethylacetamide] |  | 5.54 | 45%
CC(C)C(C)(c1ccc(-c2cnc(N)nc2)nc1)c1noc(-c2cn(CC(C)(C)O)cn2)n1 (centres unmarked) [Example 85, 1-[4-(3-{2-[6-(2-aminopyrimidin-5-yl)pyridin-3-yl]-3-methylbutan-2-yl}-1,2,4-oxadiazol-5-yl)-1H-imidazol-1-yl]-2-methylpropan-2-ol] | 6.46 | 5.72 | 
Cn1cc(-c2nc(C(C)(C)c3ccc(-c4cnc(N)nc4)nc3)no2)cn1 [Example 86, 5-(5-{2-[5-(1-methyl-1H-pyrazol-4-yl)-1,2,4-oxadiazol-3-yl]propan-2-yl}pyridin-2-yl)pyrimidin-2-amine] | 6.85 | 6.10 | 
CC(C)(c1ccc(-c2cnc(N)nc2)nc1)c1noc(-c2cn[nH]c2)n1 [Example 87, 5-(5-{2-[5-(1H-pyrazol-4-yl)-1,2,4-oxadiazol-3-yl]propan-2-yl}pyridin-2-yl)pyrimidin-2-amine] | 6.17 | < 5.30 | 
CC(C)(O)Cn1cc(-c2nc(C(C)(C)c3ccc(-c4cnc(N)nc4)nc3)no2)cn1 [Example 88, 1-[4-(3-{2-[6-(2-aminopyrimidin-5-yl)pyridin-3-yl]propan-2-yl}-1,2,4-oxadiazol-5-yl)-1H-pyrazol-1-yl]-2-methylpropan-2-ol] | 6.43 | 5.82 | 
COCCn1cc(-c2nc(C(C)(C)c3ccc(-c4cnc(N)nc4)nc3)no2)cn1 [Example 89, 5-[5-(2-{5-[1-(2-methoxyethyl)-1H-pyrazol-4-yl]-1,2,4-oxadiazol-3-yl}propan-2-yl)pyridin-2-yl]pyrimidin-2-amine] | 6.64 | 6.06 | 

Source: patent US8580825B2, “Oxadiazole inhibitors of leukotriene production” (Boehringer Ingelheim International GmbH, priority 2010, dated 2013)
